We go through 2 compounds from paper PMC5458211, “Mitochondrial VDAC1-based peptides: Attacking oncogenic properties in glioblastoma” (Oncotarget, 2017).

SMILES strings stand for the structures. Non-standard residues stand in square brackets, D forms with d. Residues, ends and D or L forms follow the SMILES beside them.

In one test the test system is cancer cells. Conditions: ref [23]; cited from earlier work. The source says: D-ΔN-Ter-Antp is composed of Antp (Penetrating), a 16 residue-long sequence from the Drosophila antennapedia-homeodomain, fused to a VDAC1-N-terminal sequence, both containing amino ...
A further test concerns U-87MG cells. Briefly: Apoptosis by FITC-Annexin V/PI staining and flow cytometry, U-87MG. The class given is cell-based, human. The conditions noted are these: 3 h at 37°C, Fig 6G-H. The procedure:
Sections were also hematoxylin-stained and visualized by microscopy. B. Tissue lysates obtained from controls and several TF-D-LP4-TTs were immunoblotted for Nestin, Sox2, NGFR, CD133, and Klf4. C. Quantitative analysis of immunoblots is shown (n=2-4). D. Immunoblot analysis of, Klf4, Sox2, Nestin and Musashi expression in U-87MG and G7 cell lines, using specific antibodies. E. Quantitative analysis of immunoblots. […] G. G7 (·) and U-87MG cells (○) (2×10^5) were incubated for 3 h with the DMSO (0.15%) or with the indicated concentration of Retro-Tf-D-LP4 peptide in serum-free growth medium at 37°C and then subjected to FITC-Annexin V/PI staining and flow cytometry analysis. H. Representative FACS analysis of DMSO- (left) and 5 μM of Retro-Tf-D-LP4- (right) treated G7 or U-87MG cells.
Cells (6×10^5 /ml) were incubated in 500 μl serum-free medium with the peptide of interest for 6 h at 37°C in the presence of 5% CO2. The cells were then trypsinized, centrifuged (1500xg, 5 min), washed with PBS and analyzed for cell death using propidium iodide (PI) staining and flow cytometer (Beckton-Dickinson, San Jose, CA) and BD CellQuest Pro software. Apoptotic cell death was also analyzed by PI and annexin V-FITC staining, and by acridine orange and ethidium bromide staining and light microscopy (Olympus LX2-KSP).
A general note: Flow cytometry measures light scatter and fluorescence of single cells or particles in a stream.

As for `CC[C@@H](C)[C@@H](NC(=O)[C@@H](CCCCN)NC(=O)[C@H](NC(=O)[C@@H](CCC(N)=O)NC(=O)[C@@H](CCCNC(=N)N)NC(=O)[C@@H](CC(C)C)NC(=O)CNC(=O)[C@@H](Cc1ccccc1)NC(=O)CNC(=O)[C@@H](Cc1ccc(O)cc1)NC(=O)CNC(=O)[C@@H](CCCCN)NC(=O)[C@H](NC(=O)[C@@H](Cc1ccccc1)NC(=O)[C@H](NC(=O)[C@@H](CC(=O)O)NC(=O)[C@H](N)CCCNC(=N)N)C(C)C)[C@H](C)O)[C@H](C)CC)C(=O)N[C@H](Cc1c[nH]c2ccccc12)C(=O)N[C@H](Cc1ccccc1)C(=O)N[C@H](CCC(N)=O)C(=O)N[C@H](CC(N)=O)C(=O)N[C@H](CCCNC(=N)N)C(=O)N[C@H](CCCNC(=N)N)C(=O)N[C@H](CCSC)C(=O)N[C@H](CCCCN)C(=O)N[C@H](Cc1c[nH]c2ccccc12)C(=O)N[C@H](CCCCN)C(=O)N[C@H](CCCCN)C(=O)O` [D-ΔN-Ter-Antp] (H-[dR][dD][dV][dF][dT][dK]G[dY]G[dF]G[dL][dR][dQ][dI][dK][dI][dW][dF][dQ][dN][dR][dR][dM][dK][dW][dK][dK]-OH; N-terminus and C-terminus assumed), the “cell death induction, selection among over 40 versions” value in the test on cancer cells is recorded as “most active in cell death induction”. Consider `CC[C@H](C)[C@H](NC(=O)[C@H](Cc1ccc(O)cc1)NC(=O)[C@@H]1CCCN1C(=O)[C@H](CCCNC(=N)N)NC(=O)[C@H](Cc1c[nH]cn1)NC(=O)[C@H](CO)NC(=O)[C@H](Cc1c[nH]c2ccccc12)NC(=O)[C@@H](NC(=O)[C@H](Cc1c[nH]c2ccccc12)NC(=O)[C@H](CCC(=O)O)NC(=O)[C@@H](CCCCN)NC(=O)[C@@H](CCCCN)NC(=O)[C@@H](CC(C)C)NC(=O)[C@@H](CCC(=O)O)NC(=O)[C@H](NC(=O)[C@@H](C)NC(=O)[C@H](NC(=O)[C@@H](CC(N)=O)NC(=O)[C@@H](CC(C)C)NC(=O)[C@@H](C)NC(=O)[C@@H](Cc1c[nH]c2ccccc12)NC(=O)[C@H](NC(=O)[C@@H](C)NC(=O)CNC(=O)[C@@H](CC(N)=O)NC(=O)[C@@H](CO)NC(=O)[C@@H](CC(N)=O)NC(=O)[C@H](CCCCN)NC(=O)[C@H](Cc1c[nH]c2ccccc12)NC(=O)[C@@H](NC(=O)[C@H](Cc1c[nH]c2ccccc12)NC(=O)[C@@H](N)CCCCN)[C@@H](C)O)[C@H](C)O)C(C)C)[C@H](C)O)[C@@H](C)O)C(=O)N[C@@H](C)C(=O)N[C@@H](Cc1c[nH]cn1)C(=O)O` [Retro-Tf-D-LP4], for which the “apoptosis of U-87MG cells” value in the test with U-87MG cells was “induces apoptosis”.
